The values that follow come from PubChem BioAssay AID328 (DTP/NCI, 2004).

The experiment has as its system BDF1 mice, P388 leukemia ip, median survival T/C. As to the kind of experiment: NCI In Vivo Anticancer Drug Screen. Data for tumor model P388 Leukemia (intraperitoneal) in B6D2F1 (BDF1) mice. The following applies: endpoint: median survival time, higher = longer survival. In outline: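 Mice carrying the transplantable tumour receive compound or vehicle. Survival is followed in each arm, and the treated measure is divided by the vehicle measure.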

Setting [1] is: dose: 100.0 mg/kg/injection, schedule: Q01DX009 (ip), vehicle: other.
[2] abbreviates: dose: 50.0 mg/kg/injection, schedule: Q04DX003 (ip), vehicle: Klucel (hydroxypropylcellulose) (HPC).
Setting [3] is: dose: 100.0 mg/kg/injection, schedule: Q04DX003 (ip), vehicle: Klucel (hydroxypropylcellulose) (HPC).
[4] abbreviates: dose: 200.0 mg/kg/injection, schedule: Q04DX003 (ip), vehicle: Klucel (hydroxypropylcellulose) (HPC).
[5] abbreviates: dose: 25.0 mg/kg/injection, schedule: Q01DX009 (ip), vehicle: saline with Tween-80.
Setting [6] is: dose: 50.0 mg/kg/injection, schedule: Q01DX009 (ip), vehicle: saline with Tween-80.
Setting [7] is: dose: 100.0 mg/kg/injection, schedule: Q01DX009 (ip), vehicle: saline with Tween-80.
The mark [8] stands for this setting: dose: 200.0 mg/kg/injection, schedule: Q01DX009 (ip), vehicle: saline with Tween-80.
[9] abbreviates: dose: 400.0 mg/kg/injection, schedule: Q01DX009 (ip), vehicle: saline with Tween-80.
Setting [10] is: dose: 100.0 mg/kg/injection, schedule: Q04DX003 (ip), vehicle: saline with Tween-80.
Where [11] appears, read: dose: 200.0 mg/kg/injection, schedule: Q04DX003 (ip), vehicle: saline with Tween-80.
Where [12] appears, read: dose: 50.0 mg/kg/injection, schedule: Q01DX009 (ip), vehicle: saline.
Where [13] appears, read: dose: 100.0 mg/kg/injection, schedule: Q01DX009 (ip), vehicle: saline.
[14] abbreviates: dose: 400.0 mg/kg/injection, schedule: Q04DX003 (ip), vehicle: Klucel (hydroxypropylcellulose) (HPC).

Each structure is given as a SMILES string. Where “and” joins values, the source holds several entries; their conditions need not be identical. Identical values can stand only once. Inconclusive results and toxic doses are left out.

Consider `CC(CCCN(CCCl)CCCl)Nc1ccnc2cc(Cl)ccc12` (configuration not stated), for which the T/C was 100 % of control (dose: 0.5 mg/kg/injection, schedule: Q04DX003 (ip), vehicle: saline); 154 % of control (dose: 0.66 mg/kg/injection, schedule: Q01DX009 (ip), vehicle: saline); 154 % of control (dose: 1.0 mg/kg/injection, schedule: Q01DX009 (ip), vehicle: saline); 100 % of control (dose: 1.0 mg/kg/injection, schedule: Q04DX003 (ip), vehicle: saline); 111 % of control (dose: 2.0 mg/kg/injection, schedule: Q04DX003 (ip), vehicle: saline).
For the compound `CCCCCCCCCCCCSSC(=S)OC(C)C`, the T/C (dose: 50.0 mg/kg/injection, schedule: Q01DX009 (ip), vehicle: other) was 106 % of control and the T/C under setting [1] was 124 % of control.
Take `CC(C)=NNS(=O)(=O)c1ccc(C)cc1`: the T/C (dose: 25.0 mg/kg/injection, schedule: Q04DX003 (ip), vehicle: Klucel (hydroxypropylcellulose) (HPC)) is 106 % of control; the T/C under setting [2] was 106 % of control; the T/C under setting [3] is 111 % of control; the T/C under setting [4] is 111 % of control.
Regarding `O=[N+]([O-])c1ccc([I+]c2ccccc2)cc1`, the T/C by setting is: (dose: 1.5 mg/kg/injection, schedule: Q04DX003 (ip), vehicle: saline sonified) 100 % of control; (dose: 5.5 mg/kg/injection, schedule: Q01DX009 (ip), vehicle: saline with Tween-80) 150 % of control; (dose: 8.25 mg/kg/injection, schedule: Q01DX009 (ip), vehicle: saline with Tween-80) 154 % of control; (dose: 12.0 mg/kg/injection, schedule: Q04DX003 (ip), vehicle: saline sonified) 118 % of control; (dose: 16.5 mg/kg/injection, schedule: Q04DX003 (ip), vehicle: saline) 150 % of control; under setting [5], 154 % of control. The T/C is 150 % of control under setting [6]; 158 % of control under setting [7]; 150 % of control (dose: 100.0 mg/kg/injection, schedule: Q04DX003 (ip), vehicle: saline sonified).
For the compound `Cn1c(=O)c2c(nc(CCCCc3nc4c(c(=O)n(C)c(=O)n4C)n3C)n2C)n(C)c1=O`, the T/C reads like this: under setting [7], 91 % of control; under setting [8], 88 % of control.
Turning to `NC(=O)CC(NC(=O)OCc1ccccc1)c1nn[nH]n1` (configuration not stated), the T/C is 90 % of control under setting [7], 100 % of control under setting [8] and 95 % of control under setting [9].
On the same counts, the results for `COc1ccc(/C=C/C(=O)c2ccc(OC)c(OC)c2)cc1OC` are 90 % of control, 104 % of control and 118 % of control.
Take `COc1cc(C=O)cc(O)c1O`: the T/C is, setting by setting: (dose: 100.0 mg/kg/injection, schedule: Q01DX009 (ip), vehicle: saline sonified) 95 % of control; (dose: 176.0 mg/kg/injection, schedule: Q01DX009 (ip), vehicle: saline sonified) 91 % of control; (dose: 200.0 mg/kg/injection, schedule: Q01DX009 (ip), vehicle: saline sonified) 120 % of control; (dose: 264.0 mg/kg/injection, schedule: Q01DX009 (ip), vehicle: saline sonified) 104 % of control.
Consider `COc1cc2cc[n+]3c(C)c4ccc(OC)c(OC)c4cc3c2cc1OC` (tested in a mixture with another compound), for which the T/C was 122 % of control (dose: 2.0 mg/kg/injection, schedule: Q01DX009 (ip), vehicle: saline); 117 % of control (dose: 5.0 mg/kg/injection, schedule: Q01DX009 (ip), vehicle: saline); 150 % of control and 192 % of control (dose: 20.0 mg/kg/injection, schedule: Q01DX009 (ip), vehicle: saline); 168 % of control and 185 % of control (dose: 40.0 mg/kg/injection, schedule: Q01DX009 (ip), vehicle: saline).
Regarding `COCC(O)CCl` (configuration not stated), the T/C is 100 % of control (dose: 50.0 mg/kg/injection, schedule: Q04DX003 (ip), vehicle: saline with Tween-80); 100 % of control and 110 % of control under setting [10]; 100 % of control and 110 % of control under setting [11].
As to `CN(C)Nc1ncnc2nc[nH]c12`, the T/C under setting [12] was 95 % of control, the T/C under setting [13] is 91 % of control, the T/C under setting [10] was 100 % of control and the T/C under setting [11] was 114 % of control.
Regarding `C/C(=C\n1ccccc1=N)C(=O)c1ccc(F)cc1`, the T/C under setting [3] was 95 % of control, the T/C under setting [4] is 90 % of control and the T/C under setting [14] is 104 % of control.
For `COc1ccc(C(C(N)=O)N2CCCCC2)cc1` (configuration not stated), the T/C was 115 % of control under setting [1]; 100 % of control under setting [3]; 105 % of control (dose: 200.0 mg/kg/injection, schedule: Q01DX009 (ip), vehicle: other); 90 % of control under setting [4]; 100 % of control (dose: 400.0 mg/kg/injection, schedule: Q01DX009 (ip), vehicle: other); 104 % of control under setting [14].
Turning to `Cc1ccc(C)c(NC(=O)c2ccccc2N)c1`, the T/C is 100 % of control (dose: 100.0 mg/kg/injection, schedule: Q01DX009 (ip), vehicle: Klucel (hydroxypropylcellulose) (HPC)); 104 % of control under setting [3]; 100 % of control (dose: 200.0 mg/kg/injection, schedule: Q01DX009 (ip), vehicle: Klucel (hydroxypropylcellulose) (HPC)); 104 % of control under setting [4]; 90 % of control (dose: 400.0 mg/kg/injection, schedule: Q01DX009 (ip), vehicle: Klucel (hydroxypropylcellulose) (HPC)); 104 % of control under setting [14].
Regarding `[O-]c1on[n+](C2CCCCC2)c1-c1ccccc1`, the T/C runs as follows: under setting [2], 105 % of control; (dose: 100.0 mg/kg/injection, schedule: Q01DX001 (ip), vehicle: Klucel (hydroxypropylcellulose) (HPC)) 109 % of control; under setting [7], 92 % of control; under setting [3], 100 % of control; (dose: 200.0 mg/kg/injection, schedule: Q01DX001 (ip), vehicle: Klucel (hydroxypropylcellulose) (HPC)) 104 % of control; under setting [8], 92 % of control. Moreover, the T/C under setting [4] was 100 % of control and the T/C (dose: 400.0 mg/kg/injection, schedule: Q01DX001 (ip), vehicle: Klucel (hydroxypropylcellulose) (HPC)) was 100 % of control.
In the case of `C1=C(c2ccccc2)C(c2ccccc2)C(c2ccccc2)C/C1=N/OCCN1CCCC1` (configuration not stated), the T/C by setting is: (dose: 6.0 mg/kg/injection, schedule: Q01DX009 (ip), vehicle: saline with Tween-80) 108 % of control; (dose: 6.0 mg/kg/injection, schedule: Q04DX003 (ip), vehicle: saline with Tween-80) 118 % of control; (dose: 8.0 mg/kg/injection, schedule: Q01DX009 (ip), vehicle: saline with Tween-80) 100 % of control; (dose: 12.0 mg/kg/injection, schedule: Q01DX009 (ip), vehicle: saline with Tween-80) 115 % of control; (dose: 18.0 mg/kg/injection, schedule: Q01DX009 (ip), vehicle: saline with Tween-80) 107 % of control; (dose: 25.0 mg/kg/injection, schedule: Q04DX003 (ip), vehicle: saline with Tween-80) 100 % of control.
`NC(CSCc1ccccc1)CSCc1ccccc1`: the T/C was 99 % of control (dose: 0.78 mg/kg/injection, schedule: Q04DX003 (ip), vehicle: saline); 86 % of control and 91 % of control (dose: 1.56 mg/kg/injection, schedule: Q04DX003 (ip), vehicle: saline); 107 % of control (dose: 6.25 mg/kg/injection, schedule: Q01DX009 (ip), vehicle: saline); 99 % of control and 104 % of control (dose: 6.25 mg/kg/injection, schedule: Q04DX003 (ip), vehicle: saline); 109 % of control (dose: 12.5 mg/kg/injection, schedule: Q01DX009 (ip), vehicle: saline); 94 % of control and 95 % of control and 100 % of control (dose: 12.5 mg/kg/injection, schedule: Q04DX003 (ip), vehicle: saline). Further, the T/C is, setting by setting: (dose: 25.0 mg/kg/injection, schedule: Q01DX009 (ip), vehicle: saline) 118 % of control; (dose: 25.0 mg/kg/injection, schedule: Q04DX003 (ip), vehicle: saline) 99 % of control and 100 % of control and 120 % of control; under setting [12], 109 % of control; (dose: 50.0 mg/kg/injection, schedule: Q04DX003 (ip), vehicle: saline) 104 % of control; under setting [13], 109 % of control.
Turning to `O=Cc1nc2ccccc2[nH]1`, the T/C was 108 % of control (dose: 12.5 mg/kg/injection, schedule: Q01DX009 (ip), vehicle: saline with Tween-80); 101 % of control under setting [5]; 103 % of control under setting [6]; 111 % of control under setting [7].
